Reference: PMC411064 (BMC Medicine, 2004)
Values joined by “and” are separate entries in the source; they are usually repeats but may differ in a detail not shown here. Identical values can stand only once. Like-named read-outs stand apart in the source and are kept apart here. Marks after values point to notes of the source that are not given here.

Tests used:
[1] = cited from earlier work; for observed variability in the area under the curve: oral
MDCK II/wt cells = experiment: CPT directional transport across MDCK II/wt cell monolayers; assay type: in vitro ADME, dog; conditions: MDCK II/wt
[2] = as above; assay type: in vitro ADME, dog; conditions: dog, MDCK, pH 7.4
[3] = molecular target: human multidrug resistance protein 2 (MRP2) (ABCC2) (Homo sapiens, UniProt Q92887); experiment: CPT directional transport across MDCK II/MRP2 cell monolayers; assay type: in vitro ADME
[4] = molecular target: human P-glycoprotein (PGP) (ABCB1) (Homo sapiens, UniProt P08183); experiment: CPT directional transport across MDCK II/PGP cell monolayers; assay type: in vitro ADME
human P-glycoprotein (PGP) (ABCB1), sequence (P08183 whole entry): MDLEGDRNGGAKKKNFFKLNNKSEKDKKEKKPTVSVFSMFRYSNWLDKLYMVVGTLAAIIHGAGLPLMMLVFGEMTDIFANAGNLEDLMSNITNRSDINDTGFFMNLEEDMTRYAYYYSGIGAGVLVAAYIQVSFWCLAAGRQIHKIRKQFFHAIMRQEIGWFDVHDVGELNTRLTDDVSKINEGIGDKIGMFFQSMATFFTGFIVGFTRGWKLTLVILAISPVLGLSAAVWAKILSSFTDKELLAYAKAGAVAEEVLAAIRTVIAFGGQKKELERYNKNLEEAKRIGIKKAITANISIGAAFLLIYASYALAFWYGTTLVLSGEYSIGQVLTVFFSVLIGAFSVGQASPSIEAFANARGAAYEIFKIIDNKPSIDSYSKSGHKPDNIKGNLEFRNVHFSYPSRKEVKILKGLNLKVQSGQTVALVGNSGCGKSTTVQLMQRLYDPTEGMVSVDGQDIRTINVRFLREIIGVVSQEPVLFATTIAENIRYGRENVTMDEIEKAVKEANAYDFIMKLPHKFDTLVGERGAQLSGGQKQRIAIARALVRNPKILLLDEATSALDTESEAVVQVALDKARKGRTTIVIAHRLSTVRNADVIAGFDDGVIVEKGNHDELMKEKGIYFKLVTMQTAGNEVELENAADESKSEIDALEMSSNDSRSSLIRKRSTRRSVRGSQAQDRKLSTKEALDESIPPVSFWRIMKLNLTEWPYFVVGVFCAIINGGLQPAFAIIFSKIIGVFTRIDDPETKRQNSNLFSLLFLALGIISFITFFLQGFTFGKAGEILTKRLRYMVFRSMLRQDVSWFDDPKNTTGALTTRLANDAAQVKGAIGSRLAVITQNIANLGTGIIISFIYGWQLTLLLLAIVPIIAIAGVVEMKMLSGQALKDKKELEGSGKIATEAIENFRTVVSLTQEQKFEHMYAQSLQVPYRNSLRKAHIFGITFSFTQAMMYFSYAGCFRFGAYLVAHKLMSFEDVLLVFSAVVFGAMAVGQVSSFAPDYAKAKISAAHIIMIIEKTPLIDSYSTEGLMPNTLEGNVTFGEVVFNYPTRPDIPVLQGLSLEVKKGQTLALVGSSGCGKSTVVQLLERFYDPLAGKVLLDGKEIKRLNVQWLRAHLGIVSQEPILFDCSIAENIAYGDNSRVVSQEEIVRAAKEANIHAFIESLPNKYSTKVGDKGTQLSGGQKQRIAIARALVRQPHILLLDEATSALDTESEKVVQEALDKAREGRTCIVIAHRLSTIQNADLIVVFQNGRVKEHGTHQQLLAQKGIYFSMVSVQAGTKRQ

Caco-2 cells [5] = experiment: CPT directional transport across Caco-2 cell monolayers; assay type: in vitro ADME, human
[6] = assay type: in vitro ADME; conditions: rat intestinal and liver s9 fractions and microsomes; data not shown
[7] = tested on: CC[C@@]1(O)C(=O)OCc2c1cc1n(c2=O)Cc2cc3ccccc3nc2-1; experiment: CPT directional transport across MDCK II/PGP cell monolayers; assay type: in vitro ADME, human; conditions: other: MDCK II/PGP, 37.0 °C
[8] = read-out: Km value of etoposide; estimated in the authors' laboratory; cited from earlier work
Caco-2 cells [9] = experiment: Inhibition of CPT efflux; assay type: in vitro ADME, human; conditions: for decrease of CPT secretory permeability in the presence of inhibitor: BL to AP
[10] = substrate: CC[C@@]1(O)C(=O)OCc2c1cc1n(c2=O)Cc2cc3ccccc3nc2-1; experiment: CPT directional transport across MDCK II/MRP2 cell monolayers; assay type: in vitro ADME, human; conditions: other: MDCK II/MRP2, 37.0 °C
[11] = orally administered, clinical evaluation

## CC[C@@]1(O)C(=O)OCc2c1cc1n(c2=O)Cc2cc3ccccc3nc2-1 [CPT, 20-(S)-camptothecin]
[1]; [11]
  variability in the area under the curve: 164%
  variability in the bioavailability: 10 fold
MDCK II/wt cells; AP to BL
  Pc carrier permeability, absorptive: 2.5 ± 0.7 cm/s × 10^5
MDCK II/wt cells; BL to AP
  Pc carrier permeability, secretory: 2.0 ± 0.2 cm/s × 10^5
MDCK II/wt cells; read-out: Km, absorptive (apical to bisolateral), AP to BL
  Km: 71.5 ± 9.7 µM
MDCK II/wt cells; read-out: Km, secretory (bisolateral to apical), BL to AP
  Km: 81.3 ± 14.6 µM
[2]
  efflux ratio at 105 min: ~1
[3]; AP to BL
  Pc carrier permeability, absorptive: 2.5 ± 0.4 cm/s × 10^5
[3]; BL to AP
  Pc carrier permeability, secretory: 4.3 ± 0.7 cm/s × 10^5
[4]; AP to BL
  Pc carrier permeability, absorptive: 2.2 ± 0.5 cm/s × 10^5
[4]; BL to AP
  Pc carrier permeability, secretory: 4.1 ± 0.4 cm/s × 10^5
Caco-2 cells [5]; AP to BL
  Pc carrier permeability, absorptive: 8.3 ± 0.3 cm/s × 10^5
Caco-2 cells [5]; AP to BL, estimated as Peff at 4°C
  Pm passive permeability, absorptive: 0.43 ± 0.05^a cm/s × 10^5
Caco-2 cells [5]; BL to AP
  Pc carrier permeability, secretory: 2.1 ± 0.1 cm/s × 10^5
Caco-2 cells [5]; BL to AP, Arrhenius plot, 4°C to 37°C
  energy of activation (Ea) of efflux: ~ 11.3 kcal/mole
Caco-2 cells [5]; BL to AP, estimated as efflux Peff at 4°C
  Pm passive permeability, secretory: 0.35 ± 0.04^a cm/s × 10^5
Caco-2 cells [5]; BL to AP, weighted nonlinear regression
  Pc for CPT secretory efflux: 2.1 ± 0.1 × 10^-5 cm/s
Caco-2 cells [5]; read-out: Km, secretory (bisolateral to apical), BL to AP, weighted nonlinear regression
  Km: 132 µM and 133 µM
[6]
  degradation on incubation: Minimal degradation

## CC[C@@]1(O)C(=O)OCc2c1cc1n(c2=O)Cc2cc3c(CN(C)C)c(O)ccc3nc2-1 [TPT, topotecan]
[1]
  observed variability in the area under the curve: 41%

## human P-glycoprotein (PGP) (ABCB1) (Homo sapiens)
[7]; AP to BL
  Km: 69.7 ± 7.6 µM
[7]; BL to AP
  Km: 36.3 ± 7.5 µM

## COc1cc([C@@H]2c3cc4c(cc3[C@@H](O[C@@H]3O[C@@H]5CO[C@@H](C)O[C@H]5[C@H](O)[C@H]3O)[C@H]3COC(=O)[C@H]23)OCO4)cc(OC)c1O [etoposide]
[8]
  Km: ~213 µM
Caco-2 cells [9]
  decrease of CPT secretory permeability in the presence of inhibitor: 25.6%
Caco-2 cells [9]; etoposide 200 μM, CPT 10 μM
  reduction of CPT efflux permeability: 1.3 fold

## COc1cc2c(cc1OC)CN(CCc1ccc(NC(=O)c3cccc4c(=O)c5cccc(OC)c5[nH]c34)cc1)CC2 [GF120918]
Caco-2 cells [9]
  decrease of CPT secretory permeability in the presence of inhibitor: 52.5%
Caco-2 cells [9]; GF120918 0.4 μM, CPT 10 μM
  reduction of CPT efflux: 2.1 fold
Caco-2 cells [9]; GF120918 0.8–1.2 μM, data not shown
  effect of increasing inhibitor concentration on CPT efflux: not further reduced

## CCc1c2c(nc3ccc(OC(=O)N4CCC(N5CCCCC5)CC4)cc13)-c1cc3c(c(=O)n1C2)COC(=O)[C@]3(O)CC [CPT-11, irinotecan]
[1]
  observed variability in the area under the curve: 50%

B1: human multidrug resistance protein 2 (MRP2) (ABCC2) (Homo sapiens) (protein)
chain: MLEKFCNSTFWNSSFLDSPEADLPLCFEQTVLVWIPLGYLWLLAPWQLLHVYKSRTKRSSTTKLYLAKQVFVGFLLILAAIELALVLTEDSGQATVPAVRYTNPSLYLGTWLLVLLIQYSRQWCVQKNSWFLSLFWILSILCGTFQFQTLIRTLLQGDNSNLAYSCLFFISYGFQILILIFSAFSENNESSNNPSSIASFLSSITYSWYDSIILKGYKRPLTLEDVWEVDEEMKTKTLVSKFETHMKRELQKARRALQRRQEKSSQQNSGARLPGLNKNQSQSQDALVLEDVEKKKKKSGTKKDVPKSWLMKALFKTFYMVLLKSFLLKLVNDIFTFVSPQLLKLLISFASDRDTYLWIGYLCAILLFTAALIQSFCLQCYFQLCFKLGVKVRTAIMASVYKKALTLSNLARKEYTVGETVNLMSVDAQKLMDVTNFMHMLWSSVLQIVLSIFFLWRELGPSVLAGVGVMVLVIPINAILSTKSKTIQVKNMKNKDKRLKIMNEILSGIKILKYFAWEPSFRDQVQNLRKKELKNLLAFSQLQCVVIFVFQLTPVLVSVVTFSVYVLVDSNNILDAQKAFTSITLFNILRFPLSMLPMMISSMLQASVSTERLEKYLGGDDLDTSAIRHDCNFDKAMQFSEASFTWEHDSEATVRDVNLDIMAGQLVAVIGPVGSGKSSLISAMLGEMENVHGHITIKGTTAYVPQQSWIQNGTIKDNILFGTEFNEKRYQQVLEACALLPDLEMLPGGDLAEIGEKGINLSGGQKQRISLARATYQNLDIYLLDDPLSAVDAHVGKHIFNKVLGPNGLLKGKTRLLVTHSMHFLPQVDEIVVLGNGTIVEKGSYSALLAKKGEFAKNLKTFLRHTGPEEEATVHDGSEEEDDDYGLISSVEEIPEDAASITMRRENSFRRTLSRSSRSNGRHLKSLRNSLKTRNVNSLKEDEELVKGQKLIKKEFIETGKVKFSIYLEYLQAIGLFSIFFIILAFVMNSVAFIGSNLWLSAWTSDSKIFNSTDYPASQRDMRVGVYGALGLAQGIFVFIAHFWSAFGFVHASNILHKQLLNNILRAPMRFFDTTPTGRIVNRFAGDISTVDDTLPQSLRSWITCFLGIISTLVMICMATPVFTIIVIPLGIIYVSVQMFYVSTSRQLRRLDSVTRSPIYSHFSETVSGLPVIRAFEHQQRFLKHNEVRIDTNQKCVFSWITSNRWLAIRLELVGNLTVFFSALMMVIYRDTLSGDTVGFVLSNALNITQTLNWLVRMTSEIETNIVAVERITEYTKVENEAPWVTDKRPPPDWPSKGKIQFNNYQVRYRPELDLVLRGITCDIGSMEKIGVVGRTGAGKSSLTNCLFRILEAAGGQIIIDGVDIASIGLHDLREKLTIIPQDPILFSGSLRMNLDPFNNYSDEEIWKALELAHLKSFVASLQLGLSHEVTEAGGNLSIGQRQLLCLGRALLRKSKILVLDEATAAVDLETDNLIQTTIQNEFAHCTVITIAHRLHTIMDSDKVMVLDNGKIIECGSPEELLQIPGPFYFMAKEAGIENVNSTKF
[10]; AP to BL
  Km: 101.2 ± 17.8 µM
[10]; BL to AP
  Km: 65.8 ± 6.7 µM
